Data set [1] deals with CT26 tumors induced by i.p. inoculation. The experiment in a line: CT26 colon cancer i.p. model, i.p. treatment (Example 1). The format is in vivo, BALB/c mice. The settings on record: for tumor growth inhibition: i.p. treatment on days 3, 10 and 17, compared to PBS control. Here is the method: (§1) Female BALB/c and C57BL/6 mice (6-7 weeks old) were purchased from the Jackson Laboratory. All animal studies were approved by and conducted according to the regulation of the Institutional Animal Care and Use Committee of the University of California, San Diego. CT26 cells were administered via the intraperitoneal (i.p.) and subcutaneous (s.c.) routes. […] Treatments were administered three times at weekly intervals. The body circumference and weight were recorded for 40 days at 2-day intervals and mice were euthanized when the circumference reached ˜8 cm. To establish the CT26 colon cancer s.c. model, CT26 cells (1.5×10^5 cells in 15 μL PBS) were mixed with 15 μL Matrigel (Corning) and injected s.c. into the left flank of BALB/c mice. […] The tumor volumes, calculated using the equation tumor width^2×tumor length)/2, and body weight were recorded for 40 days at 2-day intervals and mice were euthanized when the tumor volume reached ˜1500 mm^3.

The subject of data set [2] is s.c. CT26 tumors. Kind of data set: CT26 colon cancer s.c. model, intratumoral treatment (Example 1). The settings on record: i.t. treatment. The format is in vivo, BALB/c mice. Here is the method:
as §1

Data set [3] relates to CT26 tumors induced by i.p. inoculation. The settings on record: reference [17]; cited from earlier work.
In data set [4] the test system is RAW-Blue cells. Kind of data set: RAW-Blue cells / Quanti-Blue SEAP assay, in vitro immunogenicity (Example 1). The settings on record: 24 h. The format is cell-based. Also on record: dose or concentration left out as unconfirmed. The procedure: RAW-Blue cells (InvivoGen) were grown in Dulbecco's Modified Eagle's Medium (DMEM) supplemented with 10% (v/v) heat-sterilized fetal bovine serum (FBS; Atlanta Biologicals) and 1% (v/v) penicillin/streptomycin (p/s; Thermo Fisher Scientific). Normocin ([…]) and zeocin ([…]) were also added according to the supplier's instructions (InvivoGen). CT26 cells obtained from the ATCC were grown in Roswell Park Memorial Institute (RPMI) 1640 medium and DMEM, respectively, each supplemented with 10% (v/v) FBS and 1% (v/v) p/s.
Lipopolysaccharide (LPS; InvivoGen) was used as a positive control. After the incubation, 20 μL of the supernatant was mixed with 180 μL of Quanti-Blue solution (InvivoGen) and incubated at room temperature for 6 h. The absorbance was then measured at 630 nm using a microplate reader (Tecan).

Turning to `O=C1[O][Pt]2([NH][C@@H]3CCCC[C@H]3[NH]2)[O]C1=O` [oxaliplatin], in data set [1] (compared to mice treated with CCMV or poly(I:C) alone), the survival rate entry is recorded as “slightly increased the survival rate”. Also, the tumor growth inhibition entry in data set [1] is given as “significantly inhibited tumor growth”. The tumor volume in data set [2] (day 26) is listed as approximately 233 mm^3.
In the case of ODN1826, the “impact on CT26 tumors (previous work)” value in data set [3] is on record as “minimal impact”.
For “polyinosinic:polycytidylic acid [poly(I:C)]”, the tumor growth inhibition entry in data set [1] was “slight inhibitory effect, albeit not statistically significant”. In addition, the “body weight of CT26-bearing mice” value in data set [1] (weight gain is due to growth of the tumor) is reported as “increased”. Moreover, the “tumor growth by day 26” value in data set [2] worked out at 30 fold. In addition, the “SEAP levels versus PBS-treated control” value in data set [4] is listed as “did not differ significantly”.
